Source: PubChem BioAssay AID2060626 (Molecular Pharmacology Branch, DTP, NCI, 2025)

Test system: 168753-222-R-J1-PDC complex spheroid viability
Test: Anticancer human tumor 168753-222-R-J1-PDC patient-derived bladder carcinoma cell line growth inhibition [CLK]
Settings: for IC50: curve of first compound; for viability, T/C: stronger effect = lower value
Method in brief: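 Multi-cell-type spheroids combined patient-derived tumor cells with HUVEC endothelial cells and human mesenchymal stem cells. Paired agents were dosed in half-log steps down from about clinical Cmax, or from 10 microM where Cmax was unknown.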

[1] = second compound 0.0316 µM, first compound 0.0316 µM
[2] = second compound 0.0316 µM, first compound 0.1 µM
[3] = second compound 0.0316 µM, first compound 0.316 µM
[4] = second compound 0.0316 µM, first compound 1 µM
[5] = second compound 0.1 µM, first compound 0.0316 µM
[6] = second compound 0.1 µM, first compound 0.1 µM
[7] = second compound 0.1 µM, first compound 0.316 µM
[8] = second compound 0.1 µM, first compound 1 µM
[9] = second compound 0.316 µM, first compound 0.0316 µM
[10] = second compound 0.316 µM, first compound 0.1 µM
[11] = second compound 0.316 µM, first compound 0.316 µM
[12] = second compound 0.316 µM, first compound 1 µM
[13] = second compound 1 µM, first compound 0.0316 µM
[14] = second compound 1 µM, first compound 0.1 µM
[15] = second compound 1 µM, first compound 0.316 µM
[16] = second compound 1 µM, first compound 1 µM
[17] = second compound 3.16 µM, first compound 0.0316 µM
[18] = second compound 3.16 µM, first compound 0.1 µM
[19] = second compound 3.16 µM, first compound 0.316 µM
[20] = second compound 3.16 µM, first compound 1 µM
[21] = second compound 10 µM, first compound 0.0316 µM
[22] = second compound 10 µM, first compound 0.1 µM
[23] = second compound 10 µM, first compound 0.316 µM
[24] = second compound 10 µM, first compound 1 µM
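Also: viability measured after seven days of drug exposure.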
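For viability, T/C in this document: luminescence signal used as surrogate for viable cell amount; 100% = DMSO vehicle control wells.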

`CC(=O)O[C@H]1C(=O)[C@@]2(C)[C@H]([C@H](OC(=O)c3ccccc3)[C@]3(O)C[C@H](OC(=O)[C@H](O)[C@@H](NC(=O)c4ccccc4)c4ccccc4)C(C)=C1C3(C)C)[C@]1(OC(C)=O)CO[C@@H]1C[C@@H]2O` + CN1CCN(c2cc(C(=O)Nc3cc4cc(-c5cnn(C)c5)ccc4cn3)ccn2)CC1 was tested. Which IC50 (second compound 0.0316 µM) did it give?
Its IC50 is less than 31.6 nM.

What about the IC50 (second compound 0.1 µM) of the same compound?
Its IC50 is less than 31.6 nM.

What about the IC50 (second compound 0.316 µM) of the same compound?
Its IC50 is less than 31.6 nM.

And the IC50 (second compound 1 µM)?
Its IC50 is less than 31.6 nM.

What about the IC50 (second compound 3.16 µM) of the same compound?
The IC50 was less than 31.6 nM.

And the IC50 (second compound 10 µM)?
Its IC50 is less than 31.6 nM.

And the viability, T/C [1]?
The viability, T/C was 22.1%.

What about the viability, T/C [2] of the same compound?
Its viability, T/C is 11.1%.

What about the viability, T/C [3] of the same compound?
The viability, T/C was 11.2%.

What about the viability, T/C [4] of the same compound?
Its viability, T/C is 10.7%.

What about the viability, T/C (second compound 0.0316 µM, first compound 3.16 µM) of the same compound?
Its viability, T/C is 11.2%.

What about the viability, T/C (second compound 0.0316 µM, first compound 10 µM) of the same compound?
The viability, T/C was 12.3%.

And the viability, T/C [5]?
The viability, T/C was 12.3%.

And the viability, T/C [6]?
The viability, T/C was 10.6%.

And the viability, T/C [7]?
The viability, T/C was 10.9%.

And the viability, T/C [8]?
The viability, T/C was 9.64%.

What about the viability, T/C (second compound 0.1 µM, first compound 3.16 µM) of the same compound?
The viability, T/C was 9.88%.

What about the viability, T/C (second compound 0.1 µM, first compound 10 µM) of the same compound?
Its viability, T/C is 11.4%.

What about the viability, T/C [9] of the same compound?
Its viability, T/C is 10.7%.

And the viability, T/C [10]?
Its viability, T/C is 10.2%.

What about the viability, T/C [11] of the same compound?
The viability, T/C was 10.4%.

And the viability, T/C [12]?
Its viability, T/C is 9.61%.

And the viability, T/C (second compound 0.316 µM, first compound 3.16 µM)?
The viability, T/C was 10.3%.

What about the viability, T/C (second compound 0.316 µM, first compound 10 µM) of the same compound?
The viability, T/C was 13.2%.

And the viability, T/C [13]?
The viability, T/C was 0.12%.

And the viability, T/C [14]?
The viability, T/C was 0.32%.

What about the viability, T/C [15] of the same compound?
Its viability, T/C is 0.16%.

And the viability, T/C [16]?
Its viability, T/C is 0.11%.

And the viability, T/C (second compound 1 µM, first compound 3.16 µM)?
Its viability, T/C is 0.15%.

And the viability, T/C (second compound 1 µM, first compound 10 µM)?
The viability, T/C was 0.21%.

And the viability, T/C [17]?
The viability, T/C was 0.05%.

And the viability, T/C [18]?
The viability, T/C was 0.19%.

What about the viability, T/C [19] of the same compound?
The viability, T/C was 0.17%.

What about the viability, T/C [20] of the same compound?
The viability, T/C was 0.06%.

And the viability, T/C (second compound 3.16 µM, first compound 3.16 µM)?
Its viability, T/C is 0.09%.

What about the viability, T/C (second compound 3.16 µM, first compound 10 µM) of the same compound?
The viability, T/C was 0.14%.

What about the viability, T/C [21] of the same compound?
Its viability, T/C is 0.07%.

And the viability, T/C [22]?
The viability, T/C was 0.11%.

And the viability, T/C [23]?
Its viability, T/C is 0.51%.

What about the viability, T/C [24] of the same compound?
Its viability, T/C is 0.1%.

And the viability, T/C (second compound 10 µM, first compound 3.16 µM)?
The viability, T/C was 0.17%.

What about the viability, T/C (second compound 10 µM, first compound 10 µM) of the same compound?
The viability, T/C was 0.23%.

`CCc1c2c(nc3ccc(O)cc13)-c1cc3c(c(=O)n1C2)COC(=O)[C@]3(O)CC` + CN1CCN(c2cc(C(=O)Nc3cc4cc(-c5cnn(C)c5)ccc4cn3)ccn2)CC1 was tested. Which IC50 (second compound 0.0316 µM) did it give?
The IC50 was 16.9 nM.

What about the IC50 (second compound 0.1 µM) of the same compound?
The IC50 was less than 3.16 nM.

And the IC50 (second compound 0.316 µM)?
Its IC50 is less than 3.16 nM.

And the IC50 (second compound 1 µM)?
Its IC50 is less than 3.16 nM.

What about the IC50 (second compound 3.16 µM) of the same compound?
Its IC50 is less than 3.16 nM.

And the IC50 (second compound 10 µM)?
Its IC50 is less than 3.16 nM.

And the viability, T/C (second compound 0.0316 µM, first compound 0.00316 µM)?
Its viability, T/C is 77.7%.

What about the viability, T/C (second compound 0.0316 µM, first compound 0.01 µM) of the same compound?
The viability, T/C was 65.3%.

And the viability, T/C [1]?
Its viability, T/C is 29.3%.

And the viability, T/C [2]?
Its viability, T/C is 30.1%.

And the viability, T/C [3]?
The viability, T/C was 13.1%.

And the viability, T/C [4]?
The viability, T/C was 8.39%.

And the viability, T/C (second compound 0.1 µM, first compound 0.00316 µM)?
The viability, T/C was 32.6%.

And the viability, T/C (second compound 0.1 µM, first compound 0.01 µM)?
Its viability, T/C is 36.1%.

What about the viability, T/C [5] of the same compound?
Its viability, T/C is 20.5%.

And the viability, T/C [6]?
Its viability, T/C is 12.4%.

What about the viability, T/C [7] of the same compound?
Its viability, T/C is 8.78%.

What about the viability, T/C [8] of the same compound?
The viability, T/C was 6.92%.

And the viability, T/C (second compound 0.316 µM, first compound 0.00316 µM)?
Its viability, T/C is 9.06%.

And the viability, T/C (second compound 0.316 µM, first compound 0.01 µM)?
Its viability, T/C is 8.44%.

What about the viability, T/C [9] of the same compound?
Its viability, T/C is 7.99%.

What about the viability, T/C [10] of the same compound?
The viability, T/C was 9.04%.

What about the viability, T/C [11] of the same compound?
The viability, T/C was 2.19%.

What about the viability, T/C [12] of the same compound?
Its viability, T/C is 0.99%.

And the viability, T/C (second compound 1 µM, first compound 0.00316 µM)?
The viability, T/C was 0.14%.

What about the viability, T/C (second compound 1 µM, first compound 0.01 µM) of the same compound?
The viability, T/C was 0.16%.

What about the viability, T/C [13] of the same compound?
Its viability, T/C is 0.1%.

What about the viability, T/C [14] of the same compound?
Its viability, T/C is 0.08%.

And the viability, T/C [15]?
The viability, T/C was 0.24%.

And the viability, T/C [16]?
Its viability, T/C is 1.02%.

And the viability, T/C (second compound 3.16 µM, first compound 0.00316 µM)?
The viability, T/C was 0.15%.

What about the viability, T/C (second compound 3.16 µM, first compound 0.01 µM) of the same compound?
The viability, T/C was 0.15%.

And the viability, T/C [17]?
Its viability, T/C is 0.25%.

What about the viability, T/C [18] of the same compound?
The viability, T/C was 0.08%.

And the viability, T/C [19]?
Its viability, T/C is 0.11%.

What about the viability, T/C [20] of the same compound?
Its viability, T/C is 0.31%.

What about the viability, T/C (second compound 10 µM, first compound 0.00316 µM) of the same compound?
Its viability, T/C is 0.66%.

What about the viability, T/C (second compound 10 µM, first compound 0.01 µM) of the same compound?
Its viability, T/C is 0.14%.

And the viability, T/C [21]?
The viability, T/C was 0.19%.

And the viability, T/C [22]?
Its viability, T/C is 0.14%.

And the viability, T/C [23]?
Its viability, T/C is 0.18%.

And the viability, T/C [24]?
The viability, T/C was 0.45%.
